Values quoted from earlier work in article PMC7651685 (Psychopharmacology, 2020).
pIC50: −log10 of the molar value.

Columns and labels:
[1] = system: dopamine efflux in the nucleus accumbens; set-up: method as in Rowley et al. [2017]; details: rat nucleus accumbens microdialysis; ref Rowley et al. [2017]; cited from earlier work
DAT = details: ref Markowitz et al. [2006]; read-out: Affinity for DAT, IC50; cited from earlier work
[2] = no reference given; cited from earlier work

| Structure (SMILES) | Time of peak of dopamine efflux [1] | other results |
| --- | --- | --- |
| C[C@H](N)Cc1ccccc1 [d-amphetamine] | 40 min | – |
| CC(C)(N)Cc1ccccc1 [phentermine] | 40 min | – |
| O=C(O)C(c1ccccc1)C1CCCCN1 (stereo not shown) [ritalinic acid] | – | Pharmacological activity [2]: pharmacologically inactive |
